Converted amounts (≈) assume the structure as drawn. Read-outs that look alike come from different tables or passages of the source.
How the values were obtained:
Lactobacillus casei = assay: in vitro MIC test (Table I); assay type: cell-based; settings: Lacticaseibacillus casei; strain 09B001; 24 hours
Protocol: (§1) In Table I, below, the results of in vitro MIC tests are summarized. For this test each organism is inoculated in a series of test tubes of CP-63,517 to determine the minimal concentration of the antibiotic in mcg/ml which inhibits the growth of the organism over a period of 24 hours (MIC).

F. necrophorum = assay: in vitro MIC test (Table I); assay type: cell-based; settings: Fusobacterium necrophorum; strain 84C004; 24 hours
Protocol: as §1

Bordatella bronchi = assay: in vitro MIC test (Table I); assay type: cell-based; settings: 24 h
Protocol: as §1

Moraxella bovis = assay: in vitro MIC test (Table I); assay type: cell-based; settings: strain 93A001, 24 hours
Protocol: as §1

Erysip. rhusio = assay: in vitro MIC test (Table I); assay type: cell-based; settings: strain 04A005; 24 hours
Protocol: as §1

Fusobacterium plauti = assay: in vitro MIC test (Table I); assay type: cell-based; settings: Flavonifractor plautii; strain 84G001; 24 hours
Protocol: as §1

Peptococcus sp. = assay: in vitro MIC test (Table I); assay type: cell-based; settings: strain 17B001; 24 hours
Protocol: as §1

Haemophilus parahemol. = assay: in vitro MIC test (Table I); assay type: cell-based; settings: strain 54B002, 24 hours
Protocol: as §1

Treponema hyodysenteriae = assay: in vitro MIC test (Table I); assay type: cell-based; settings: for MIC: 24 hours
Protocol: as §1

Pasteurella multocida = assay: in vitro MIC test (Table I); assay type: cell-based; settings: 24 h
Protocol: as §1

L. catenaforme = assay: in vitro MIC test (Table I); assay type: cell-based; settings: strain 09C001; 24 hours
Protocol: as §1

Staphylococcus aureus = assay: in vitro MIC test (Table I); assay type: cell-based; settings: 24 h
Protocol: as §1

[1] = test system: Staphylococcus epidermidis; assay: in vitro MIC test (Table I); assay type: cell-based; settings: 24 h
Protocol: as §1

Corynebacterium pyogenes = assay: in vitro MIC test (Table I); assay type: cell-based; settings: 24 hours
Protocol: as §1

P. haemolytica = assay: in vitro MIC test (Table I); assay type: cell-based; settings: Mannheimia haemolytica, 24 h
Protocol: as §1

Bacteroides vulgates = assay: in vitro MIC test (Table I); assay type: cell-based; settings: 24 h
Protocol: as §1

Streptococcus pyogenes = assay: in vitro MIC test (Table I); assay type: cell-based; settings: strain 020054, 24 hours
Protocol: as §1

rumen fluid = assay: in vitro rumen technique, propionic acid production; set-up: species or system calf; settings: for increase in propionic acid: comparison with Salinomycin; for increase in production of propionic acid over control: comparison with Monensin
Protocol: The value of animal feeds generally has been determined directly by feeding the animal. British Pat. No. 1,197,826 details an in vitro rumen technique whereby the changes occurring in feeds brought about by microorganisms are measured more readily and with great accuracy in the evaluation of animal feeds. This technique involves the use of an apparatus in which the digestive processes of the animals are conducted and studied in vitro. The animal feeds, rumen inoculum and various growth promotants are introduced into and withdrawn from a laboratory unit under carefully controlled conditions and the changes taken place are studied critically and progressively during the consumption of the feed by the microorganisms. […] The change in propionic acid content is expressed as percent of the propionic acid content found in the control rumen fluid. Long term in vivo feeding studies are used to show a reliable correlation between propionic acid increase in the rumen fluid and improved animal performance.
Rumen fluid is collected from a fistulated calf which is fed on a commercial fattening ration plus hay. The rumen fluid is immediately filtered through cheese cloth, and 10 ml added to a 50 ml conical flask containing 400 mg of standard substrate (68% corn starch +17% cellulose +15% extracted soybean meal), 10 ml of a pH 6.8 buffer and the test compound. The flasks are gassed with oxygen free nitrogen for about two minutes, and incubated in a shaking water bath at 39° C. for about 16 hours. All tests are conducted in triplicate.
After incubation, 5 ml of the sample is mixed with 1 ml of 25% metaphosphoric acid. After 10 minutes 0.25 ml of formic acid is added and the mixture centrifuged at 1500 RPM for 10 minutes. Samples are then analyzed by gas-liquid chromatography by the method of D. W. Kellog, J. Dairy Science, 52, 1690 (1969). Peak heights for acetic, propionic and butyric acids are determined for samples from untreated and treated incubation flasks.

coccidial infections = assay: activity against coccidial infections in poultry; settings: in vivo
Protocol: Efficacy data for Antibiotic CP-63,517 and its salts against coccidial infections in chickens was obtained in the following fashion. Groups of 3-5 ten-day old SPF white leghorn cockerel chicks were fed a mash diet containing Antibiotic CP-63,517, its sodium and/or potassium salt, or the known agents Monensin or Stenorol uniformly dispersed therein. After being on this ration for 24 hours each chick was inoculated per os with oocysts of the particular species of Eimeria being tested. Other groups of 3-5 ten-day old chicks were fed a similar mash diet free of any test compound. They were also infected after 24 hours and served as infected controls. Yet another group of 3-5 ten-day old chicks were fed the mash diet free of any test compound and were not infected with coccidia. These served as normal controls. The results of treatment were evaluated after five days in the case of E. acervulina, and six days for other challenges.

[2] = test system: Gram-positive microorganisms; assay: inhibitory action against growth of Gram-positive microorganisms; assay type: cell-based; settings: in vitro
Protocol: as §1

COC1CCC(OC2CC3(CC(O)C(C)C(C(C)C=C(C)C(=O)C(C)CC(C)C(=O)O)O3)OC2(C)C2CCC(C)C3(OC(C4OC(O)(CO)C(C)CC4C)CC3C)O2)OC1C (stereo not shown) [CP-63,517]
MIC (Lactobacillus casei): 0.39 µg/mL (≈ 0.45 µM)
MIC (F. necrophorum): 25 µg/mL (≈ 28.8 µM)
MIC (Bordatella bronchi; strain 73A006): 0.39 µg/mL (≈ 0.45 µM)
MIC (Bordatella bronchi; strain 73A016): 6.25 µg/mL (≈ 7.21 µM)
MIC (Moraxella bovis): 50 µg/mL (≈ 57.7 µM)
MIC (Erysip. rhusio): 0.39 µg/mL (≈ 0.45 µM)
MIC (Fusobacterium plauti): 0.39 µg/mL (≈ 0.45 µM)
MIC (Peptococcus sp.): ≤ 0.1 µg/mL
MIC (Haemophilus parahemol.): 25 µg/mL (≈ 28.8 µM)
MIC (Treponema hyodysenteriae; Brachyspira hyodysenteriae, strain 94A001, read-out: MIC): 6.25 µg/mL (≈ 7.21 µM)
activity against Treponema hyodysenteriae (Treponema hyodysenteriae; in vitro): possesses activity against Treponema hyodysenteriae
MIC (Treponema hyodysenteriae; strain 94A002): 6.25 µg/mL (≈ 7.21 µM)
MIC (Pasteurella multocida; strain 59A013): 50 µg/mL (≈ 57.7 µM)
MIC (Pasteurella multocida; strain 59A048): 0.39 µg/mL (≈ 0.45 µM)
MIC (L. catenaforme): 0.39 µg/mL (≈ 0.45 µM)
MIC (Staphylococcus aureus; strain 01A005): 0.39 µg/mL (≈ 0.45 µM)
MIC (Staphylococcus aureus; strain 01A052): 0.39 µg/mL (≈ 0.45 µM)
MIC (Staphylococcus aureus; strain 01A106): 0.78 µg/mL (≈ 0.9 µM)
MIC (Staphylococcus aureus; strain 01A110): 0.39 µg/mL (≈ 0.45 µM)
MIC (Staphylococcus aureus; strain 01A539): 0.78 µg/mL (≈ 0.9 µM)
MIC (Staphylococcus aureus; strain 01A543): 3.12 µg/mL (≈ 3.6 µM)
MIC ([1]; strain 01B087): 0.78 µg/mL (≈ 0.9 µM)
MIC ([1]; strain 01B111): 0.39 µg/mL (≈ 0.45 µM)
MIC (Corynebacterium pyogenes; Trueperella pyogenes, strain 11D001, read-out: MIC): 12.5 µg/mL (≈ 14.4 µM)
MIC (Corynebacterium pyogenes; strain 11D002): 12.5 µg/mL (≈ 14.4 µM)
MIC (Corynebacterium pyogenes; strain 11D003): 12.5 µg/mL (≈ 14.4 µM)
MIC (P. haemolytica; strain 59B018): 0.39 µg/mL (≈ 0.45 µM)
MIC (P. haemolytica; strain 59B046): 0.39 µg/mL (≈ 0.45 µM)
MIC (P. haemolytica; strain 59B061): 50 µg/mL (≈ 57.7 µM)
MIC (Bacteroides vulgates): 25 µg/mL (≈ 28.8 µM)
MIC (Streptococcus pyogenes): 0.1 µg/mL (≈ 0.115 µM)
increase in propionic acid (rumen fluid; 5 μg/ml): about 66%
increase in propionic acid (rumen fluid; 20 μg/ml): about 86%
increase in production of propionic acid over control (rumen fluid; 10 micrograms per milliliter (10 μg/ml)): 95%
increase in production of propionic acid over control (rumen fluid; 20 micrograms per milliliter): 96%
activity against coccidial infections in poultry (coccidial infections): excellent activity
antibacterial / growth inhibitory activity [2]: exhibits inhibitory action against the growth of a number of Gram-positive microorganisms
